Key:
[1] = system: rat primary cortical cultures; set-up: method as in PMID 31078573; details: 30 μM; did not recover after 19 h of washout period; cited from earlier work
DNA [2] = system: DNA; set-up: method as in PMID 33337517; details: 0.3 mg/kg; cited from earlier work
SN4741 cells = details: 25–400 µM; cited from earlier work
PC12 cells = details: 25–400 µM; cited from earlier work
SH-SY5Y cells = details: cited from earlier work
DNA [3] = test: Alkaline comet assay on nuclei from frontal cortex and hippocampus; assay type: in vivo, rat; details: for Damaging effect on DNA compared with 25I-NBOMe: frontal cortex and hippocampus, LSD 0.05 mg/kg, MDMA 5 mg/kg, 25I-NBOMe 0.3 mg/kg; for DNA damage (tail moment): vs control; for Tail moment after four injections compared with the acute one: 5 mg/kg ip × 4 vs acute
Procedure: Animals received single or multiple (once per day for seven days) subcutaneous injections of 25I-NBOMe dissolved in 0.9% NaCl at a dose of 0.3 mg/kg/2 ml. The control group was treated with 0.9% NaCl solution in the same way. All procedures were performed 72 h after the last injection. The time point of 72 h was chosen due to the possible generation of neurotoxicity via oxidative stress caused by reactive oxygen species (ROS). Exceptionally, for initial 25I-NBOMe brain distribution studies, rats received the drug in the dose of 1 and 10 mg/kg and were sacrificed 15 min after the drug administration. The rat blood plasma and brain tissues were collected immediately after rats’ decapitation. LSD (0.05 mg/kg, ip) was given daily for 7 days in a volume of 1 ml/kg, while MDMA 5 mg/kg, ip was injected in a volume of 2 ml/kg every second day (overall 4 injections).
The alkaline comet assay was performed with the use of CometAssay® Reagent Kit for Single Cell Gel Electrophoresis Assay. At 72 h after the acute and chronic treatment with 25I-NBOMe (0.3 mg/kg, sc × 7 days), LSD (0.05 mg/kg, ip × 7 days) or MDMA (5 mg/kg, ip × 4 doses every second day) animals were sacrificed by decapitation and the frontal cortex (that consist of the sum of FC and mPFC) and hippocampus were dissected. After homogenization and several purification and centrifugation stages (as described previously in[17]), the nuclear suspension was obtained using a sucrose gradient (2.8 M/2.6 M, bottom to top). The nuclear fraction was mixed with low melting point agarose and transferred immediately onto CometSlides™. The following steps, including membrane lysis, DNA unwinding, alkaline electrophoresis, and staining (SYBR® Gold), were carried out according to Trevigen CometAssay® protocol. Stained sections were acquired and analyzed under a fluorescence microscope (Nikon Eclipse50i, Japan) equipped with a camera and NIS Elements software. The data was analyzed using OpenComet software v.1.3 (cometbio.org), a plugin of ImageJ program v.1.47 (NIH, Bethesda, MD, USA). DNA damage was presented as a tail moment. Tail moment incorporates a measure of both the smallest detectable size of migrating DNA (reflected by the comet tail length) and the number of damaged pieces (represented by the intensity of DNA in the tail).

[4] = set-up: method as in PMID 20956470; details: cited from earlier work

## COc1cc(CCNCc2ccccc2OC)c(OC)cc1Br [25B-NBOMe]
[1]
  Neuronal activity: decreased neuronal activity
DNA [2]
  DNA damage in the rat frontal cortex: potent in damaging DNA

## COc1cc(CCNCc2ccccc2OC)c(OC)cc1Cl [25C-NBOMe]
SN4741 cells
  Cell viability: potent reduction
PC12 cells
  Cell viability: potent reduction
SH-SY5Y cells; 25–400 µM
  Cell viability: potent reduction
SH-SY5Y cells
  Potency to reduce SH-SY5Y cells in respect to methamphetamine: 50 times

## CCN(CC)C(=O)[C@@H]1C=C2c3cccc4[nH]cc(c34)C[C@H]2N(C)C1 [LSD, lysergic acid diethylamide]
DNA [3]
  Damaging effect on DNA compared with 25I-NBOMe: weaker in its damaging effect on DNA than 25I-NBOMe
DNA [3]; frontal cortex, 0.05 mg/kg ip × 7 vs single, 72 h
  DNA damage after chronic administration compared with a single dose: significantly greater after chronic administration
DNA [3]; frontal cortex, single and 7-day treatment 0.05 mg/kg ip, 72 h
  DNA damage (tail moment): caused DNA damage
DNA [3]; hippocampus, 0.05 mg/kg ip × 7 vs single, 72 h
  DNA damage after repeated injections compared with a single dose: higher DNA damage than the single dose
DNA [3]; hippocampus, acute and chronic (× 7) 0.05 mg/kg ip, 72 h
  DNA damage (tail moment): significant increase in the tail moment value

## CNC(C)Cc1ccc2c(c1)OCO2 (centres unmarked) [MDMA, 3,4-methylenedioxymethamphetamine]
DNA [3]
  Damaging effect on DNA compared with 25I-NBOMe: nearly equal to 25I-NBOMe in oxidative damage of DNA
DNA [3]; frontal cortex, 72 h
  Tail moment after four injections compared with the acute one: stronger increase in the tail moment value
DNA [3]; frontal cortex, acute and chronic (4 injections every second day) 5 mg/kg ip, 72 h
  DNA damage (tail moment): exhibited DNA damaging properties
DNA [3]; hippocampus, 72 h
  Tail moment after four injections compared with the acute one: stronger increase in the tail moment value
DNA [3]; hippocampus, acute and chronic (4 injections every second day) 5 mg/kg ip, 72 h
  DNA damage (tail moment): exhibited DNA damaging properties

## COc1cc(CCNCc2ccccc2OC)c(OC)cc1I [^11C-CIMBI-5]
[4]
  Location in brain shortly after intravenous injection: located in the cortex and the lower range in the cerebellum

From article PMC8861095, “Neurotoxicological profile of the hallucinogenic compound 25I-NBOMe” (Scientific Reports, 2022)
